# ± gives the standard deviation of the averaged measurements.
# Assays:
# Assay in all cases: level (log10 ratio to DMSO vehicle control); higher = higher biomarker level / cell amount than vehicle control
# [1] = compound: C[C@@H]1C[C@H]2[C@@H]3CCC4=CC(=O)C=C[C@]4(C)[C@@]3(F)[C@@H](O)C[C@]2(C)[C@@]1(O)C(=O)COP(=O)(O)O [Dexamethasone sodium phosphate] (in DMSO)
# Procedure: (§1)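 BioMAP Diversity Plus panel of 12 human primary cell co-culture systems (3C, 4H, LPS, SAg, BT, BF4T, BE3C, CASM3C, HDF3CGF, KF3CT, MyoF, Mphg). Compounds were added 1 h before stimulation and left for 24 h (MyoF 48 h; BT 72 h for soluble read-outs or 6 d for IgG). Biomarkers were read by ELISA, cytotoxicity by SRB, PBMC viability and proliferation by Alamar Blue. Each well value was divided by the mean of 8 DMSO control wells on the same plate and log10 transformed; duplicate blinded samples were tested at 4 concentrations.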
# [2] = compound: O=C(O)C(F)(OC(F)(F)C(F)(OC(F)(F)C(F)(OC(F)(F)C(F)(F)C(F)(F)F)C(F)(F)F)C(F)(F)F)C(F)(F)F [Perfluoro-(2,5,8-trimethyl-3,6,9-trioxadodecanoic)acid] (in DMSO)
# Procedure: as §1
# [3] = compound: CO[Si](C)(CCC(F)(F)C(F)(F)C(F)(F)C(F)(F)C(F)(F)C(F)(F)F)OC [Dimethoxymethyl((perfluorohexyl)ethyl)silane] (in DMSO)
# Procedure: as §1
# [4] = compound: OCC(F)(F)C(F)(F)C(F)(F)C(F)F [1H,1H,5H-Perfluoropentanol] (in DMSO)
# Procedure: as §1
# [5] = compound: O=C(O)C(F)(F)C(F)(F)C(F)(F)OC(F)(F)F [Perfluoro(4-methoxybutanoic) acid] (in DMSO)
# Procedure: as §1
# [6] = compound: O=S(=O)(O)C(F)(F)C(F)(F)OC(F)(F)C(F)(F)F [Perfluoro(2-ethoxyethane)sulfonic acid] (in DMSO)
# Procedure: as §1
test system,measurement,setting,value
SAg:PBMC Cytotoxicity,level (log10),[1]; 1500 nM,-0.013 ± 0.054
same,level (log10),[1]; 4400 nM,0.003 ± 0.037
same,level (log10),[1]; 13000 nM,-0.05 ± 0.024
same,level (log10),[1]; 40000 nM,-0.0395 ± 0.019
same,level (log10),[2]; 1100 nM,0.002 ± 0.04
same,level (log10),[2]; 3300 nM,0.024 ± 0.027
same,level (log10),[2]; 10000 nM,-0.0095 ± 0.07
same,level (log10),[3]; 6700 nM,-0.0045 ± 0.012
same,level (log10),[3]; 20000 nM,0.019 ± 0.0057
same,level (log10),[4]; 6700 nM,-0.005 ± 0.0042
same,level (log10),[4]; 20000 nM,0.0025 ± 0.013
same,level (log10),[4]; 60000 nM,0.035 ± 0.058
same,level (log10),[5]; 6700 nM,0.046 ± 0.038
same,level (log10),[5]; 20000 nM,-0.007 ± 0.024
same,level (log10),[5]; 60000 nM,0.019 ± 0.0028
same,level (log10),[6]; 6700 nM,-0.025 ± 0.038
same,level (log10),[6]; 20000 nM,0.0045 ± 0.0092
same,level (log10),[6]; 60000 nM,0.0085 ± 0.0021
3C:CXCL9/MIG,level (log10),[1]; 1500 nM,0.0025 ± 0.0021
same,level (log10),[1]; 4400 nM,0.001 ± 0.0085
same,level (log10),[1]; 13000 nM,-0.004 ± 0.0071
same,level (log10),[1]; 40000 nM,0.003 ± 0.0085
same,level (log10),[2]; 1100 nM,0.0125 ± 0.0078
same,level (log10),[2]; 3300 nM,-0.0035 ± 0.021
same,level (log10),[2]; 10000 nM,0.007 ± 0.0071
same,level (log10),[3]; 6700 nM,-0.011 ± 0.0014
same,level (log10),[3]; 20000 nM,0.003 ± 0.0071
same,level (log10),[4]; 6700 nM,0 ± 0.0057
same,level (log10),[4]; 20000 nM,-0.0035 ± 0.0064
same,level (log10),[4]; 60000 nM,0.0105 ± 0.00071
same,level (log10),[5]; 6700 nM,-0.012 ± 0.013
same,level (log10),[5]; 20000 nM,-0.012 ± 0.017
same,level (log10),[5]; 60000 nM,-0.001 ± 0.013
same,level (log10),[6]; 6700 nM,-0.0005 ± 0.0064
same,level (log10),[6]; 20000 nM,-0.0045 ± 0.0035
same,level (log10),[6]; 60000 nM,0.0075 ± 0.0021
4H:CCL26/Eotaxin-3,level (log10),[1]; 1500 nM,-0.0175 ± 0.0035
same,level (log10),[1]; 4400 nM,-0.0315 ± 0.0035
same,level (log10),[1]; 13000 nM,-0.0285 ± 0.029
same,level (log10),[1]; 40000 nM,-0.052 ± 0.078
same,level (log10),[2]; 1100 nM,0.0005 ± 0.0078
same,level (log10),[2]; 3300 nM,-0.0095 ± 0.023
same,level (log10),[2]; 10000 nM,-0.0075 ± 0.005
same,level (log10),[3]; 6700 nM,-0.0125 ± 0.023
same,level (log10),[3]; 20000 nM,0.011 ± 0.014
same,level (log10),[4]; 6700 nM,-0.008 ± 0.011
same,level (log10),[4]; 20000 nM,0.008 ± 0.0085
same,level (log10),[4]; 60000 nM,-0.005 ± 0.0071
same,level (log10),[5]; 6700 nM,0.018 ± 0.0085
same,level (log10),[5]; 20000 nM,0.0205 ± 0.013
same,level (log10),[5]; 60000 nM,0.0245 ± 0.023
same,level (log10),[6]; 6700 nM,0.049 ± 0.027
same,level (log10),[6]; 20000 nM,0.0585 ± 0.0078
same,level (log10),[6]; 60000 nM,0.0405 ± 0.00071
SAg:SRB,level (log10),[1]; 1500 nM,0.0105 ± 0.0092
same,level (log10),[1]; 4400 nM,0.0005 ± 0.005
same,level (log10),[1]; 13000 nM,0.005 ± 0.016
same,level (log10),[1]; 40000 nM,0.003 ± 0.025
same,level (log10),[2]; 1100 nM,-0.007 ± 0.0071
same,level (log10),[2]; 3300 nM,-0.013 ± 0.0042
same,level (log10),[2]; 10000 nM,-0.0015 ± 0.0021
same,level (log10),[3]; 6700 nM,-0.0125 ± 0.013
same,level (log10),[3]; 20000 nM,0.0045 ± 0.0035
same,level (log10),[4]; 6700 nM,-0.0075 ± 0.0021
same,level (log10),[4]; 20000 nM,-0.009 ± 0.0014
same,level (log10),[4]; 60000 nM,0.001 ± 0.0085
same,level (log10),[5]; 6700 nM,-0.0145 ± 0.0078
same,level (log10),[5]; 20000 nM,-0.023 ± 0.0099
same,level (log10),[5]; 60000 nM,-0.017 ± 0.021
same,level (log10),[6]; 6700 nM,-0.0125 ± 0.013
same,level (log10),[6]; 20000 nM,-0.0125 ± 0.0021
same,level (log10),[6]; 60000 nM,-0.0185 ± 0.0092
BT:B cell Proliferation,level (log10),[1]; 1500 nM,-0.0145 ± 0.011
same,level (log10),[1]; 4400 nM,0.005 ± 0.013
same,level (log10),[1]; 13000 nM,-0.0245 ± 0.019
same,level (log10),[1]; 40000 nM,-0.0025 ± 0.015
same,level (log10),[2]; 1100 nM,-0.029 ± 0.027
same,level (log10),[2]; 3300 nM,-0.0035 ± 0.013
same,level (log10),[2]; 10000 nM,-0.0145 ± 0.011
same,level (log10),[3]; 6700 nM,0.0085 ± 0.011
same,level (log10),[3]; 20000 nM,0.023 ± 0.0042
same,level (log10),[4]; 6700 nM,-0.016 ± 0.0042
same,level (log10),[4]; 20000 nM,0.0015 ± 0.046
same,level (log10),[4]; 60000 nM,0.0065 ± 0.057
same,level (log10),[5]; 6700 nM,-0.009 ± 0.034
same,level (log10),[5]; 20000 nM,-0.0165 ± 0.013
same,level (log10),[5]; 60000 nM,-0.006 ± 0.0099
same,level (log10),[6]; 6700 nM,0.011 ± 0.011
same,level (log10),[6]; 20000 nM,0.0575 ± 0.036
same,level (log10),[6]; 60000 nM,0.034 ± 0.0014
LPS:sTNF-alpha,level (log10),[1]; 1500 nM,-0.083 ± 0.047
same,level (log10),[1]; 4400 nM,-0.0655 ± 0.032
same,level (log10),[1]; 13000 nM,-0.19 ± 0.038
same,level (log10),[1]; 40000 nM,-0.262 ± 0.032
same,level (log10),[2]; 1100 nM,0.0035 ± 0.022
same,level (log10),[2]; 3300 nM,-0.001 ± 0.016
same,level (log10),[2]; 10000 nM,0.001 ± 0.02
same,level (log10),[3]; 6700 nM,-0.0025 ± 0.0078
same,level (log10),[3]; 20000 nM,-0.0045 ± 0.0078
same,level (log10),[4]; 6700 nM,0.006 ± 0.041
same,level (log10),[4]; 20000 nM,0.0065 ± 0.044
same,level (log10),[4]; 60000 nM,0.01 ± 0.028
same,level (log10),[5]; 6700 nM,-0.017 ± 0.0071
same,level (log10),[5]; 20000 nM,-0.0055 ± 0.005
same,level (log10),[5]; 60000 nM,-0.0115 ± 0.00071
same,level (log10),[6]; 6700 nM,0.011 ± 0.0057
same,level (log10),[6]; 20000 nM,-0.0005 ± 0.0035
same,level (log10),[6]; 60000 nM,-0.0005 ± 0.0092
3C:Proliferation,level (log10),[1]; 1500 nM,-0.0115 ± 0.005
same,level (log10),[1]; 4400 nM,0.011 ± 0.092
same,level (log10),[1]; 13000 nM,-0.0045 ± 0.052
same,level (log10),[1]; 40000 nM,0.015 ± 0.02
same,level (log10),[2]; 1100 nM,0.007 ± 0.02
same,level (log10),[2]; 3300 nM,0.013 ± 0.0085
same,level (log10),[2]; 10000 nM,-0.011 ± 0.013
same,level (log10),[3]; 6700 nM,0.003 ± 0.014
same,level (log10),[3]; 20000 nM,-0.0055 ± 0.03
same,level (log10),[4]; 6700 nM,-0.0045 ± 0.066
same,level (log10),[4]; 20000 nM,0.005 ± 0.0071
same,level (log10),[4]; 60000 nM,-0.033 ± 0.093
same,level (log10),[5]; 6700 nM,-0.057 ± 0.023
same,level (log10),[5]; 20000 nM,-0.0055 ± 0.046
same,level (log10),[5]; 60000 nM,-0.036 ± 0.03
same,level (log10),[6]; 6700 nM,-0.043 ± 0.025
same,level (log10),[6]; 20000 nM,-0.027 ± 0.034
same,level (log10),[6]; 60000 nM,-0.0325 ± 0.042
BT:sIL-17A,level (log10),[1]; 1500 nM,-0.776 ± 0.019
same,level (log10),[1]; 4400 nM,-0.55 ± 0.03
same,level (log10),[1]; 13000 nM,-0.652 ± 0.057
same,level (log10),[1]; 40000 nM,-0.717 ± 0.042
same,level (log10),[2]; 1100 nM,-0.024 ± 0.11
same,level (log10),[2]; 3300 nM,0.121 ± 0.12
same,level (log10),[2]; 10000 nM,0.0575 ± 0.17
same,level (log10),[3]; 6700 nM,-0.0265 ± 0.029
same,level (log10),[3]; 20000 nM,-0.025 ± 0.17
same,level (log10),[4]; 6700 nM,-0.0225 ± 0.086
same,level (log10),[4]; 20000 nM,0.044
same,level (log10),[4]; 60000 nM,-0.0225 ± 0.25
same,level (log10),[5]; 6700 nM,-0.082 ± 0.0028
same,level (log10),[5]; 20000 nM,-0.0755 ± 0.083
same,level (log10),[5]; 60000 nM,0.0425 ± 0.16
same,level (log10),[6]; 6700 nM,-0.0995 ± 0.17
same,level (log10),[6]; 20000 nM,-0.131 ± 0.05
same,level (log10),[6]; 60000 nM,-0.148 ± 0.19

# Source: the supplement of paper PMC10331698
